Laboratory results published in patent US4638070A, “Heterocyclic amino-alcohol derivatives” (Continental Pharma, priority 1980, dated 1987).

Legend:
[1] = tested on: guinea-pig ileum (histamine contractions); assay: Antispasmodic activity in vitro, contractions caused by histamine; settings: added 15 minutes before spasm-producing agent
Description: (§1) (4) The antispasmodic activity was measured in vitro, on guinea-pig ileum, the contractions of which were caused by histammne (Hist.), acetylcholine (Achol) or barium chloride (BaCl2). The tested products were added to perfusion bath 15 minutes before the spasm-producing agents.
(§2) The dose is given in micograms (μg) per ml of bath causing complete spasm inhibition.

femoral artery = assay: Vasodilator activity, femoral artery (technique of perfused paw); type: in vivo; set-up: key: O: no action; +: slight activity; ++: effect equal to half the effect of papaverine; +++: effect equal to that of papaverine; ++++: effect higher than that of papaverine; settings: intra-arterial, 30 mg/kg, anaesthetized dog, vs papaverine at same dose
Description: (3) The vasodilator activity was measured at the level of femoral artery on anaesthetized dog (technique of perfused paw). The tested substances were given intra-arterially at the rate of 30 mg/kg. Results are expressed with respect to papaverine tested at the same dose.
++: effect equal to half the effect of papaverine.
+++: effect equal to that of papaverine.
++++: effect higher than that of papaverine.

[2] = Acute toxicity, oral, LD50 (Litchfield and Wilcoxon); settings: mouse, in vivo, fasted male mice, confidence limits p=95% in brackets
Description: (1) The acute toxicity was determined on fasted male mice. The tested substances were orally administered and LD50 values (lethal dose for 50% of animals) were calculated according to the method of Litchfield and Wilcoxon (J. Pharmacol. exp. Ther. 96, 94-113, 1949). These LD50 values are given in mg/kg and also, when possible, with their confidence limits for p=95%.

[3] = tested on: unanaesthetized, hypertension-suffering rat; assay: Antihypertensive activity (systolic arterial pressure), oral; type: in vivo; settings: 60 mg/kg, hypertensive rat, 3 hours
Description: (2) The antihypertensive activity was measured on unanaesthetized, hypertension-suffering rat. The tested substances were orally given at a rate of 60 mg/kg. The systolic arterial pressure was measured every 30 minutes for 2 hours before and for 3 hours after the tested product was given. Results are expressed as follows: […]
O: no reduction of arterial pressure.
+: reduction lower than 10 mm Hg.
++: reduction of 10 to 20 mm Hg.
+++: reduction higher than 20 mm Hg.

[4] = tested on: guinea-pig ileum (acetylcholine contractions); assay: Antispasmodic activity in vitro, contractions caused by acetylcholine; settings: added 15 minutes before spasm-producing agent
Description: as §1, §2

| Compound | ANTISPASMODIC ACTIVITY HIST. (dose causing complete spasm inhibition) [1] | VASODILATOR ACTIVITY (femoral artery) | LD50 [2] | ANTIHYPERTENSIVE ACTIVITY [3] | ANTISPASMODIC ACTIVITY ACHOL (dose causing complete spasm inhibition) [4] |
| --- | --- | --- | --- | --- | --- |
| CC1Cc2cc(C(O)C(C)NCCOc3ccc(Cl)cc3)ccc2S1 (stereo not shown) [No 58] | 1.7 μg per ml | +++ | > 4000 mg/kg | +++ (reduction higher than 20 mm Hg) | 1.7 μg per ml |
| CCC(=O)c1ccc(OCCNC(C)C(O)c2ccc3c(c2)CCS3)cc1 (stereo not shown) [No 108] | 0.8 μg per ml | +++ | > 4000 mg/kg | ++ (reduction of 10 to 20 mm Hg) | 3.3 μg per ml |
| CC(NCCCSc1ccccc1)C(O)c1ccc2c(c1)CCCCS2 (stereo not shown) [No 39] | 1.7 μg per ml | +++ | > 4000 mg/kg | ++ (reduction of 10 to 20 mm Hg) | 0.8 μg per ml |
| Cc1ccc(CCCCNC(C)C(O)c2ccc3c(c2)CCCS3)cc1 (stereo not shown) [No 34] | 0.8 μg per ml | +++ | ~4000 mg/kg | +++ (reduction higher than 20 mm Hg) | 0.8 μg per ml |
| CC(NCCOc1ccc(Cl)cc1)C(O)c1ccc2c(c1)CCCS2 (stereo not shown) [No 40] | 1.7 μg per ml | +++ | > 4000 mg/kg | +++ (reduction higher than 20 mm Hg) | 1.7 μg per ml |
| CCCCCCCCNC(C)C(O)c1ccc2c(c1)CCC2 (stereo not shown) [No 164] | 0.8 μg per ml | +++ | 1750 mg/kg | ++ (reduction of 10 to 20 mm Hg) | 0.8 μg per ml |
| CC(NCCOc1ccc(Cl)cc1)C(O)c1ccc2c(c1)CCC2 (stereo not shown) [No 169] | 3.3 μg per ml | +++ | > 4000 mg/kg | +++ (reduction higher than 20 mm Hg) | 0.8 μg per ml |
| CC(NCCCCc1ccc(Cl)cc1)C(O)c1ccc2c(c1)CCC2 (stereo not shown) [No 167] | 0.8 μg per ml | +++ | ~270 mg/kg | +++ (reduction higher than 20 mm Hg) | 0.8 μg per ml |
| CC(NCCCCc1ccccc1)C(O)c1ccc2c(c1)SCCS2 (stereo not shown) [No 100] | 8.3 μg per ml | ++++ | > 2000 mg/kg | +++ (reduction higher than 20 mm Hg) | 1.7 μg per ml |
| CC1Cc2cc(C(O)C(C)NCCOc3ccccc3)ccc2O1 (stereo not shown) [No 89] | 8.3 μg per ml | +++ | 550 mg/kg | +++ (reduction higher than 20 mm Hg) | 8.3 μg per ml |
| CC(NCCCCc1ccccc1)C(O)c1ccc2c(c1)CCO2 (stereo not shown) [No 35] | 0.8 μg per ml | ++ | 430 mg/kg | +++ (reduction higher than 20 mm Hg) | 1.7 μg per ml |
| CC(NCCOc1ccccc1)C(O)c1ccc2c(c1)CCS2 (stereo not shown) [No 47] | 1.7 μg per ml | ++ ++ | > 4000 mg/kg | ++ (reduction of 10 to 20 mm Hg) | 1.7 μg per ml |
| CC1Cc2cc(C(O)C(C)NCCOc3ccccc3)ccc2S1 (stereo not shown) [No 61] | 3.3 μg per ml | ++ | ~4000 mg/kg | +++ (reduction higher than 20 mm Hg) | 3.3 μg per ml |
| CC(NCCCc1ccccc1)C(O)c1ccc2c(c1)CCS2 (stereo not shown) [No 57] | 1.7 μg per ml | +++ | > 2000 mg/kg | ++ (reduction of 10 to 20 mm Hg) | 1.7 μg per ml |
| CC(NCCCC(=O)c1ccc(F)cc1)C(O)c1ccc2c(c1)CCCS2 (stereo not shown) [No 102] | 0.8 μg per ml | ++ | > 4000 mg/kg | +++ (reduction higher than 20 mm Hg) | 0.3 μg per ml |
| CC(C)C(=O)OC(c1ccc2c(c1)CCS2)C(C)NCCCCc1ccccc1 (stereo not shown) [No 117] | 1.7 μg per ml | ++++ | 2200 mg/kg | +++ (reduction higher than 20 mm Hg) | 0.8 μg per ml |
| CC1Cc2cc(C(O)C(C)NCCCCc3ccc(Cl)cc3)ccc2S1 (stereo not shown) [No 68] | 3.3 μg per ml | +++ | < 500 mg/kg | +++ (reduction higher than 20 mm Hg) | 0.8 μg per ml |
| CC(NCCCCc1ccccc1)C(O)c1ccc2c(c1)CCC2 (stereo not shown) [No 163] | 1.7 μg per ml | ++ | 800 mg/kg | +++ (reduction higher than 20 mm Hg) | 0.8 μg per ml |
| CC1CSc2ccc(C(O)C(C)NCCCCc3ccccc3)cc2C1 (stereo not shown) [No 45] | 0.8 μg per ml | +++ | > 4000 mg/kg | + (reduction lower than 10 mm Hg) | 0.8 μg per ml |
| CC1Cc2cc(C(O)C(C)NCCOc3ccc(Cl)cc3)ccc2O1 (stereo not shown) [No 84] | 8.3 μg per ml | +++ | 1200 mg/kg | +++ (reduction higher than 20 mm Hg) | 3.3 μg per ml |
| CCCCSCCCNC(C)C(O)c1ccc2c(c1)CCCS2 (stereo not shown) [No 80] | 0.8 μg per ml | ++ | 5000 mg/kg | +++ (reduction higher than 20 mm Hg) | 1.7 μg per ml |
| CC1Cc2cc(C(O)C(C)NCCSc3ccccc3)ccc2S1 (stereo not shown) [No 106] | 1.7 μg per ml | +++ | > 4000 mg/kg | ++ (reduction of 10 to 20 mm Hg) | 1.7 μg per ml |
| CC(NCCCC(=O)c1ccc(F)cc1)C(O)c1ccc2c(c1)CCS2 (stereo not shown) [No 111] | 0.3 μg per ml | +++ | ~700 mg/kg | ++ (reduction of 10 to 20 mm Hg) | 0.8 μg per ml |
